Results reported in US9023844B2, “Heterocyclylpyri (mi) dinylpyrazole as fungicidals” (Bayer Intellectual Property GmbH, priority 2011, dated 2015).
Read-outs that look alike come from different tables or passages of the source.

Tests used:
[1] = Determination of log P values by HPLC on a reverse phase column (C18), EEC-Directive 79/831 Annex V.A8 (Methods A, B, C); type: physicochemical; settings: for chromatographic logP: reverse phase C18 HPLC column
How it was run: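 LogP was determined by C18 reverse-phase HPLC/UPLC with acetonitrile/water eluents containing formic acid. Method A used a 10–95% acetonitrile gradient over 4.25 min at 55 °C and 2.0 mL/min. Method B used 5–95% over 1.70 min at 55 °C and 2.0 mL/min, and Method C used 10–95% over 3.25 min at 40 °C and 0.8 mL/min, with MS detection.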

Uromyces appendiculatus = experiment: Example B: Uromyces test (beans) / preventive; type: in vivo; settings: in vivo
Leptosphaeria nodorum = experiment: Example C: Leptosphaeria test (wheat) / preventive; type: in vivo
Pyrenophora teres = experiment: Example D: Pyrenophora test (barley) / preventive; type: in vivo
Puccinia recondita = experiment: Example E: Puccinia test (wheat) / preventive; type: in vivo; settings: in vivo
Pyricularia oryzae = type: in vivo
Phytophthora infestans = type: in vivo
Plasmopara viticola = experiment: Example H: Plasmopara test (grapevines) / preventive; type: in vivo; settings: in vivo
Venturia inaequalis = experiment: Example I: Venturia test (apples) / preventive; settings: 100 ppm of active ingredient, preventive spray, evaluated 10 days after inoculation
Procedure: After the spray coating has dried on, the plants are inoculated with an aqueous conidia suspension of the causal agent of apple scab (Venturia inaequalis) and then remain for 1 day in an incubation cabinet at approximately 20° C. and a relative atmospheric humidity of 100%.
The plants are then placed in a greenhouse at approximately 21° C. and a relative atmospheric humidity of approximately 90%.
The test is evaluated 10 days after the inoculation.

Sphaerotheca fuliginea = experiment: Example A: Sphaerotheca test (cucumber) / preventive; type: in vivo
Septoria tritici = experiment: Example J: Septoria tritici test (wheat) / preventive; type: in vivo; settings: in vivo
[2] = system: Fusarium nivale (var. majus); experiment: Example K: Fusarium nivale (var. majus) test (wheat) / preventive; type: in vivo; settings: 500 ppm of active ingredient, preventive spray, evaluated 5 days after inoculation
Procedure: After the spray coating has been dried, the plants are slightly injured by using a sandblast and afterwards they are sprayed with a conidia suspension of Fusarium nivale (var. majus).
The test is evaluated 5 days after the inoculation.

Fusarium graminearum [3] = type: in vivo; settings: in vivo
[4] = system: DON/Acetyl-DON production by Fusarium graminearum; experiment: microbe, parasite or virus in culture; type: cell-based; settings: at 50 μM; for inhibition at 50 µM: Fusarium graminearum, read-out: Inhibition of DON/AcDON in %
Fusarium graminearum [5] = experiment: microbe, parasite or virus in culture; type: cell-based; settings: for Growth inhibition of Fusarium graminearum in %: at 50 μM; for inhibition at 50 µM: Fusarium graminearum, read-out: Growth inhibition of Fusarium graminearum in %
[6] = Method C (HPLC, reverse phase C18)
[7] = Method B (HPLC, reverse phase C18)
[8] = pH 2.7, values in the synthesis examples, HPLC, reverse phase C18, read-out: log P (pH 2.7)
[9] = 500 ppm of active ingredient, cucumber, preventive spray, evaluated 7 days after inoculation
[10] = 500 ppm of active ingredient, barley, preventive spray, evaluated 7-9 days after inoculation
[11] = 500 ppm of active ingredient, rice, preventive spray, evaluated 7 days after inoculation
[12] = 100 ppm of active ingredient, tomatoes, preventive spray, evaluated 3 days after inoculation

Row | Structure (SMILES) | LogP [1, 6] | efficacy (Uromyces appendiculatus) [%] | efficacy (Leptosphaeria nodorum; in vivo) [%] | efficacy (Pyrenophora teres; in vivo) [%] | efficacy (Puccinia recondita) [%] | efficacy (Pyricularia oryzae; in vivo) [%] | efficacy (Phytophthora infestans; in vivo) [%] | efficacy (Plasmopara viticola) [%] | efficacy (Venturia inaequalis) [%] | efficacy (Sphaerotheca fuliginea; in vivo) [%] | efficacy (Septoria tritici) [%] | efficacy [2] [%] | efficacy (Fusarium graminearum [3]) [%] | LogP [1, 7] | other results
1 | CC(=O)Nc1cc(-c2c(-c3ccc(F)cc3)nn3c2OC[Si](C)(C)C3)ccn1 [Example 61] | 2.01 | 84 | 78 | 95 | 75 | 70 | 71 | 100 | 96 | – | – | – | – | – | –
2 | CCC(=O)Nc1cc(-c2c(-c3ccc(F)cc3)nn3cccnc23)ccn1 [Example 79] | 1.91 | – | – | 100 | – | – | 95 | 88 | 96 | 80 | – | – | – | – | –
3 | C[Si]1(C)COc2c(-c3ccnc(NC(=O)C4CC4)c3)c(-c3ccc(F)cc3)nn2C1 [Example 81] | 2.18 | 94 | 75 | 90 | 100 | 95 | – | 100 | 99 | 98 | 88 | 100 | 100 | – | –
4 | CC(=O)Nc1cc(-c2c(-c3ccc(F)cc3)nn3c2OCCC3)ccn1 [Example 2] | – | 74 | 88 | 100 | – | 90 | 92 | – | – | 100 | – | – | – | 1.22 | Inhibition of DON/AcDON in % [4]: 100%; Growth inhibition of Fusarium graminearum in % (Fusarium graminearum [5]): 57%
5 | CC(=O)Nc1cc(-c2c(-c3ccccc3)nn3c2NCCC3)ccn1 [Example 55, N-[4-(2-phenyl-4,5,6,7-tetrahydropyrazolo[1,5-a]pyrimidin-3-yl)pyridin-2-yl]acetamide] | – | – | – | – | – | – | – | – | 93 | – | – | – | – | – | chromatographic logP ([1]; Method C (HPLC, reverse phase C18), read-out: LogP): 1.13; chromatographic logP [1, 8]: 1.13; efficacy (Sphaerotheca fuliginea; [9]): 88%; efficacy (Pyrenophora teres; [10]): 90%; efficacy (Pyricularia oryzae; [11]): 70%; efficacy (Phytophthora infestans; [12]): 91%; inhibition at 50 µM [4]: 100%; inhibition at 50 µM (Fusarium graminearum [5]): 100%
6 | CC(C)CC(=O)Nc1cc(-c2c(-c3ccccc3)nn3c2OCCC3)ccn1 [Example 11] | – | 94 | 100 | 100 | 100 | 94 | – | 86 | 100 | 100 | 70 | 100 | 100 | 1.66 | –
7 | O=C(Nc1cc(-c2c(-c3ccc(F)cc3)nn3c2OCC3)ccn1)C1CC1 [Example 3, N-{4-[6-(4-fluorophenyl)-2,3-dihydropyrazolo[5,1-b][1,3]oxazol-7-yl]pyridin-2-yl}cyclopropanecarboxamide] | – | – | – | – | – | – | – | – | – | – | – | – | – | – | chromatographic logP ([1]; Method B (HPLC, reverse phase C18), read-out: LogP): 1.48; chromatographic logP [1, 8]: 1.48; efficacy (Sphaerotheca fuliginea; [9]): 93%; efficacy (Leptosphaeria nodorum; 500 ppm of active ingredient, wheat, preventive spray, evaluated 7-9 days after inoculation): 88%; efficacy (Pyrenophora teres; [10]): 100%; efficacy (Pyricularia oryzae; [11]): 95%; efficacy (Phytophthora infestans; [12]): 92%; inhibition at 50 µM [4]: 98%; inhibition at 50 µM (Fusarium graminearum [5]): 57%
8 | CC(C)C(=O)Nc1cc(-c2c(-c3ccc(F)cc3)nn3c2OC[Si](C)(C)C3)ccn1 [Example 76] | 2.14 | 94 | 75 | 95 | 95 | 90 | – | 100 | 100 | 95 | 86 | 100 | 86 | – | –
9 | CCC(C)C(=O)Nc1cc(-c2c(-c3ccc(F)cc3)nn3c2OCCC3)ccn1 (stereo not drawn) [Example 24] | – | 94 | 95 | 95 | 100 | 94 | – | – | – | 98 | 100 | 100 | 90 | 1.82 | Inhibition of DON/AcDON in % [4]: 94%; Growth inhibition of Fusarium graminearum in % (Fusarium graminearum [5]): 91%
